From the supplement of paper PMC11451515

Columns and labels:
NOMO1 [1] = experiment: AUC of viability dose-response curve (% viability x log10 dose units); higher = less sensitive; details: 48 h
Procedure, shortened: (§1)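 Over 48 h at 37°C, leukemia cells in 1536-well plates (500 or 1000 cells/well), adapted to each medium, received library compounds in DMSO at 11 threefold doses from 47 μM to 0.79 nM. CellTiter-Glo One luminescence, normalised per plate to DMSO and cell-free wells, was fitted by a four-parameter log-logistic function of log10 dose. The area under the curve was then integrated by trapezoidal rule, after scaling curves above full viability and removing those that failed quality control.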

P12-Ichikawa [2] = experiment: as above; details: 48 h
Procedure, shortened: as §1

SEM cells [3] = experiment: as above; details: 48 h
Procedure, shortened: as §1

SEM cells [4] = experiment: cell viability relative to DMSO control; higher = less cytotoxic; details: 48 h
Procedure, shortened: (§2)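 NOMO1 or SEM cells were plated at 500 cells/well and P12-Ichikawa cells at 1000 cells/well in 1536-well plates (5 μl), after each leukemia line had been adapted for at least four passages in each medium. Pin dosing delivered library compounds in DMSO at 11 threefold concentrations, 47 μM to 0.79 nM. CellTiter-Glo One luminescence was read after 48 h at 37°C. Viability is reported as a per-plate percentage of DMSO wells, with cell-free wells as background.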

P12-Ichikawa [5] = experiment: as above; details: 48 h
Procedure, shortened: as §2

NOMO1 [6] = experiment: as above; details: RPMI 5 mM glucose + 10% FBS, 48 h
Procedure, shortened: as §2

Cn1c2ccccc2c2c3c(c4c5ccccc5n(CCC#N)c4c21)CNC3=O
AUC of viability dose-response curve
Details | NOMO1 [1] | P12-Ichikawa [2] | SEM cells [3]
HPLM + 10% dialyzed FBS | 362 | 393 | 305
RPMI 5 mM glucose + 10% FBS | 376 | 363 | 308
RPMI 5 mM glucose + 10% dialyzed FBS | 367 | 367 | 300

cell viability [%], SEM cells [4]
Details | HPLM + 10% dialyzed FBS | RPMI 5 mM glucose + 10% dialyzed FBS
0.000781 µM | 109 | 123
0.00234 µM | 118 | 103
0.00702 µM | 142 | 159
0.0211 µM | 119 | 130
0.0632 µM | 111 | 124
0.19 µM | 98.1 | 107
0.569 µM | 55 | 52.7
1.71 µM | 41 | 39.4
5.12 µM | 25.7 | 19
15.4 µM | 18.8 | 18.5
46.1 µM | 17.6 | 11.2

Cc1c(C(=O)Nc2ccc(N3C[C@@H](C)O[C@@H](C)C3)nc2)cccc1-c1ccc(OC(F)(F)F)cc1
AUC of viability dose-response curve
Details | NOMO1 [1] | P12-Ichikawa [2] | SEM cells [3]
HPLM + 10% dialyzed FBS | 366 | 349 | 361
RPMI 5 mM glucose + 10% FBS | 382 | 372 | 335
RPMI 5 mM glucose + 10% dialyzed FBS | 408 | 372 | 356

Details | cell viability [%]
P12-Ichikawa [5], RPMI 5 mM glucose + 10% dialyzed FBS, 0.000781 µM | 128
P12-Ichikawa [5], RPMI 5 mM glucose + 10% dialyzed FBS, 0.00234 µM | 119
P12-Ichikawa [5], RPMI 5 mM glucose + 10% dialyzed FBS, 0.00702 µM | 119
P12-Ichikawa [5], RPMI 5 mM glucose + 10% dialyzed FBS, 0.0211 µM | 131
P12-Ichikawa [5], RPMI 5 mM glucose + 10% dialyzed FBS, 0.0632 µM | 131
P12-Ichikawa [5], RPMI 5 mM glucose + 10% dialyzed FBS, 0.19 µM | 126
P12-Ichikawa [5], RPMI 5 mM glucose + 10% dialyzed FBS, 0.569 µM | 124
P12-Ichikawa [5], RPMI 5 mM glucose + 10% dialyzed FBS, 1.71 µM | 104
P12-Ichikawa [5], RPMI 5 mM glucose + 10% dialyzed FBS, 5.12 µM | 48.6
P12-Ichikawa [5], RPMI 5 mM glucose + 10% dialyzed FBS, 15.4 µM | 7.92
P12-Ichikawa [5], RPMI 5 mM glucose + 10% dialyzed FBS, 46.1 µM | 6.12
SEM cells [4], HPLM + 10% dialyzed FBS, 0.000781 µM | 113
SEM cells [4], HPLM + 10% dialyzed FBS, 0.00234 µM | 125
SEM cells [4], HPLM + 10% dialyzed FBS, 0.00702 µM | 116
SEM cells [4], HPLM + 10% dialyzed FBS, 0.0211 µM | 133
SEM cells [4], HPLM + 10% dialyzed FBS, 0.0632 µM | 131
SEM cells [4], HPLM + 10% dialyzed FBS, 0.19 µM | 124
SEM cells [4], HPLM + 10% dialyzed FBS, 0.569 µM | 132
SEM cells [4], HPLM + 10% dialyzed FBS, 1.71 µM | 108
SEM cells [4], HPLM + 10% dialyzed FBS, 5.12 µM | 16.3
SEM cells [4], HPLM + 10% dialyzed FBS, 15.4 µM | 6.58
SEM cells [4], HPLM + 10% dialyzed FBS, 46.1 µM | 4.61

C\C1=N\N=C(\C2=CC=C(N)C=C2)C3=CC4=C(OCO4)C=C3C1
AUC of viability dose-response curve
Details | NOMO1 [1] | P12-Ichikawa [2] | SEM cells [3]
HPLM + 10% dialyzed FBS | 471 | 469 | 467
RPMI 5 mM glucose + 10% FBS | 471 | 465 | 470
RPMI 5 mM glucose + 10% dialyzed FBS | 464 | 465 | 464

SEM cells [4], HPLM + 10% dialyzed FBS
Details | cell viability [%]
0.000781 µM | 129
0.00234 µM | 115
0.00702 µM | 122
0.0211 µM | 136
0.0632 µM | 126
0.19 µM | 123
0.569 µM | 131
1.71 µM | 131
5.12 µM | 150
15.4 µM | 138
46.1 µM | 107

CNC(=O)c1ccc(Nc2ncc(C(F)(F)F)c(NCc3nccnc3N(C)[S+](C)(=O)[O-])n2)cc1
AUC of viability dose-response curve
Details | NOMO1 [1] | P12-Ichikawa [2] | SEM cells [3]
HPLM + 10% dialyzed FBS | 446 | 457 | 348
RPMI 5 mM glucose + 10% FBS | 412 | 447 | 317
RPMI 5 mM glucose + 10% dialyzed FBS | 443 | 438 | 314

cell viability [%], HPLM + 10% dialyzed FBS
Details | P12-Ichikawa [5] | SEM cells [4]
0.000781 µM | 120 | 115
0.00234 µM | 127 | 105
0.00702 µM | 117 | 124
0.0211 µM | 118 | 127
0.0632 µM | 124 | 125
0.19 µM | 114 | 113
0.569 µM | 122 | 99.8
1.71 µM | 125 | 63.2
5.12 µM | 109 | 23.5
15.4 µM | 89.4 | 16.7
46.1 µM | 102 | 20.9

OCc1ccccc1O[C@@H]1O[C@H](CO)[C@@H](O)[C@H](O)[C@H]1O
Details | AUC of viability dose-response curve | cell viability [%]
NOMO1 [1], HPLM + 10% dialyzed FBS | 447 | –
NOMO1 [1], RPMI 5 mM glucose + 10% FBS | 463 | –
NOMO1 [1], RPMI 5 mM glucose + 10% dialyzed FBS | 458 | –
NOMO1 [6], 0.000781 µM | – | 120
NOMO1 [6], 0.00234 µM | – | 116
NOMO1 [6], 0.00702 µM | – | 139
NOMO1 [6], 0.0211 µM | – | 128
NOMO1 [6], 0.0632 µM | – | 126
NOMO1 [6], 0.19 µM | – | 139
NOMO1 [6], 0.569 µM | – | 138
NOMO1 [6], 1.71 µM | – | 127
NOMO1 [6], 5.12 µM | – | 129
NOMO1 [6], 15.4 µM | – | 106
NOMO1 [6], 46.1 µM | – | 98.7
P12-Ichikawa [2], HPLM + 10% dialyzed FBS | 464 | –
P12-Ichikawa [2], RPMI 5 mM glucose + 10% FBS | 448 | –
P12-Ichikawa [2], RPMI 5 mM glucose + 10% dialyzed FBS | 459 | –
SEM cells [3], HPLM + 10% dialyzed FBS | 430 | –
SEM cells [3], RPMI 5 mM glucose + 10% FBS | 372 | –
SEM cells [3], RPMI 5 mM glucose + 10% dialyzed FBS | 426 | –

SEM cells [4], RPMI 5 mM glucose + 10% dialyzed FBS
Details | cell viability [%]
0.000781 µM | 101
0.00234 µM | 121
0.00702 µM | 118
0.0211 µM | 121
0.0632 µM | 136
0.19 µM | 148
0.569 µM | 121
1.71 µM | 117
5.12 µM | 97.5
15.4 µM | 61.8
46.1 µM | 48.8

NC/1=N/C(=O)N/C=C1F
AUC of viability dose-response curve
Details | NOMO1 [1] | P12-Ichikawa [2] | SEM cells [3]
HPLM + 10% dialyzed FBS | 417 | 455 | 468
RPMI 5 mM glucose + 10% FBS | 432 | 438 | 464
RPMI 5 mM glucose + 10% dialyzed FBS | 405 | 432 | 429

SEM cells [4], HPLM + 10% dialyzed FBS
Details | cell viability [%]
0.000781 µM | 118
0.00234 µM | 145
0.00702 µM | 123
0.0211 µM | 134
0.0632 µM | 118
0.19 µM | 125
0.569 µM | 125
1.71 µM | 136
5.12 µM | 130
15.4 µM | 120
46.1 µM | 103

CN(C)CCN(C)CCc1ccc(Cl)c(Cl)c1
AUC of viability dose-response curve
Details | NOMO1 [1] | P12-Ichikawa [2] | SEM cells [3]
HPLM + 10% dialyzed FBS | 473 | 467 | 466
RPMI 5 mM glucose + 10% FBS | 473 | 465 | 458
RPMI 5 mM glucose + 10% dialyzed FBS | 473 | 466 | 451

cell viability [%], SEM cells [4]
Details | HPLM + 10% dialyzed FBS | RPMI 5 mM glucose + 10% FBS
0.000781 µM | 118 | 123
0.00234 µM | 114 | 101
0.00702 µM | 132 | 121
0.0211 µM | 131 | 125
0.0632 µM | 128 | 124
0.19 µM | 131 | 133
0.569 µM | 127 | 145
1.71 µM | 119 | 132
5.12 µM | 122 | 127
15.4 µM | 114 | 131
46.1 µM | 114 | 126

CN1[C@@H]2CCC[C@H]1C[C@@H](NC(=O)c1nn(C)c3ccccc13)C2.Cl
AUC of viability dose-response curve
Details | NOMO1 [1] | P12-Ichikawa [2] | SEM cells [3]
HPLM + 10% dialyzed FBS | 468 | 463 | 468
RPMI 5 mM glucose + 10% FBS | 466 | 444 | 434
RPMI 5 mM glucose + 10% dialyzed FBS | 465 | 465 | 457

SEM cells [4], HPLM + 10% dialyzed FBS
Details | cell viability [%]
0.000781 µM | 112
0.00234 µM | 110
0.00702 µM | 126
0.0211 µM | 115
0.0632 µM | 126
0.19 µM | 123
0.569 µM | 124
1.71 µM | 125
5.12 µM | 133
15.4 µM | 119
46.1 µM | 115

NC(=O)c1cccc(-c2cccc(OC(=O)NC3CCCCC3)c2)c1
AUC of viability dose-response curve
Details | NOMO1 [1] | P12-Ichikawa [2] | SEM cells [3]
HPLM + 10% dialyzed FBS | 461 | 413 | 421
RPMI 5 mM glucose + 10% FBS | 473 | 402 | 357
RPMI 5 mM glucose + 10% dialyzed FBS | 472 | 380 | 376

cell viability [%], SEM cells [4]
Details | HPLM + 10% dialyzed FBS | RPMI 5 mM glucose + 10% FBS
0.000781 µM | 110 | 116
0.00234 µM | 125 | 119
0.00702 µM | 128 | 120
0.0211 µM | 133 | 120
0.0632 µM | 124 | 119
0.19 µM | 38.4 | 33
0.569 µM | 128 | 110
1.71 µM | 96.5 | 78.1
5.12 µM | 94.7 | 62.2
15.4 µM | 104 | 78
46.1 µM | 96.9 | 71.5
